{
  "source": "patent EP1228058B1",
  "about": "“BENZOPYRANYL GUANIDINE DERIVATIVES, PROCESS FOR PREPARATION THEREOF, AND PHARMACEUTICAL COMPOSITIONS CONTAINING THEM” (Dongbu Hannong Chemical Co., Ltd., priority 1999, dated 2001)",
  "data": [
    {"assay": "Acute oral toxicity test in rats", "conditions": "rat, in vivo, single oral dose in 0.5% methyl cellulose, read-out: lethal dose (LD50) for oral administration", "procedure": "In this test six-week old SPF SD rats were used with two rats assigned to each group. The compounds of examples 1, 2, 3, 5, 7, 8, 9, 10, 13, 14, 15, 19, 22, 23, 24, 25, 26, 28, 29, 30, 31, 32, 33, 34, 35, 36, 37, 38, 39, 40, 41, 44, 46, 47, 48, 49, 51, 52, 57, 58, 60, 62, 64, 67, 68, 69, 71 and 72 were suspended in 0.5% methyl cellulose, respectively, and administered orally at a single dose of 1 g/kg using a ball-tipped needle. The dosing volume was 10 ml/kg. […] All survivors at the end of the observation period underwent laparotomy under ether anesthesia and the blood samples were taken from the abdominal aorta for hematological tests and biochemical analysis. After sacrificing the animals, autopsy was performed for macroscopic observation of the organs and tissues. Tissue samples of vital organs from macroscopic legion were removed and fixed in 10% neutral buffered formalin solution, then processed by standard procedures for histopathology and examined under light microscope. There were no significant changes in clinical symptoms, body weight and mortalities. Also in hematology, serum chemistry parameters and macroscopic observation, no drug-related changes were observed.", "units": {"LD50": "mg/kg"}, "values": [
      {"smiles": "COC(OC)[C@]1(C)Oc2ccc([N+](=O)[O-])cc2[C@H](NC(=NC#N)Nc2ccc(Cl)cc2)[C@H]1O", "note": "[Example 1, (2R, 3R, 4S)-N''-cyano-N-(6-nitro-3,4-dihydro-3-hydroxy-2-methyl-2-dimethoxymethyl-2H-benzopyran-4-yl)-N'-(4-chlorophenyl)guanidine]", "LD50": "> 1000"},
      {"smiles": "COC(OC)[C@]1(C)Oc2ccc([N+](=O)[O-])cc2[C@H](NC(=NC#N)Nc2cccc(Cl)c2)[C@H]1O", "note": "[Example 3, (2R, 3R, 4S)-N''-cyano-N-(6-nitro-3,4-dihydro-3-hydroxy-2-methyl-2-dimethoxymethyl-2H-benzopyran-4-yl)-N'-(3-chlorophenyl)guanidine]", "LD50": "> 1000"},
      {"smiles": "COC(OC)[C@]1(C)Oc2ccc([N+](=O)[O-])cc2[C@H](NC(=NC#N)Nc2ccc([N+](=O)[O-])cc2)[C@H]1O", "note": "[Example 5, (2R, 3R, 4S)-N''-cyano-N-(6-nitro-3,4-dihydro-3-hydroxy-2-methyl-2-dimethoxymethyl-2H-benzopyran-4-yl)-N'-(4-nitrophenyl)guanidine]", "LD50": "> 1000"},
      {"smiles": "COc1ccc(NC(=NC#N)N[C@H]2c3cc([N+](=O)[O-])ccc3O[C@@](C)(C(OC)OC)[C@@H]2O)cc1", "note": "[Example 8, (2R, 3R, 4S)-N''-cyano-N-(6-nitro-3,4-dihydro-3-hydroxy-2-methyl-2-dimethoxymethyl-2H-benzopyran-4-yl)-N'-(4-methoxyphenyl) guanidine]", "LD50": "> 1000"},
      {"smiles": "COc1ccc(NC(=NC#N)N[C@@H]2c3cc([N+](=O)[O-])ccc3O[C@@](C)(C(OC)OC)[C@H]2O)cc1", "note": "[Example 9, (2R, 3S, 4R)-N''-cyano-N-(6-nitro-3,4-dihydro-3-hydroxy-2-methyl-2-dimethoxymethyl-2H-benzopyran-4-yl)-N'-(4-methoxyphenyl) guanidine]", "LD50": "> 1000"},
      {"smiles": "COC(OC)[C@@]1(C)Oc2ccc([N+](=O)[O-])cc2[C@@H](NC(=NC#N)Nc2cccc(Cl)c2)[C@@H]1O", "note": "[Example 13, (2S, 3S, 4R)-N''-cyano-N-(6-nitro-3,4-dihydro-3-hydroxy-2-methyl-2-dimethoxymethyl-2H-benzopyran-4-yl)-N'-(3-chlorophenyl)guanidine]", "LD50": "> 1000"},
      {"smiles": "COC(OC)[C@@]1(C)Oc2ccc([N+](=O)[O-])cc2[C@H](NC(=NC#N)Nc2cccc(C(F)(F)F)c2)[C@H]1O", "note": "[Example 14, (2S, 3R, 4S)-N''-cyano-N-(6-nitro-3,4-dihydro-3-hydroxy-2-methyl-2-dimethoxymethyl-2H-benzopyran-4-yl)-N'-(3-trifluoromethylphenyl)guanidine]", "LD50": "> 1000"},
      {"smiles": "COC(OC)[C@]1(C)Oc2ccc([N+](=O)[O-])cc2[C@@H](NC(=NC#N)Nc2ccc(C)cc2)[C@@H]1O", "note": "[Example 19, (2R, 3S, 4R)-N''-cyano-N-(6-nitro-3,4-dihydro-3-hydroxy-2-methyl-2-dimethoxymethyl-2H-benzopyran-4-yl)-N'-(4-methylphenyl)guanidine]", "LD50": "> 1000"},
      {"smiles": "COC(OC)[C@]1(C)Oc2ccc([N+](=O)[O-])cc2[C@@H](NC(=NC#N)NCc2ccccc2)[C@@H]1O", "note": "[Example 23, (2R, 3S, 4R)-N''-cyano-N-(6-nitro-3,4-dihydro-3-hydroxy-2-methyl-2-dimethoxymethyl-2H-benzopyran-4-yl)-N'-benzylguanidine]", "LD50": "> 1000"},
      {"smiles": "COC(OC)[C@]1(C)Oc2ccccc2[C@H](NC(=NC#N)Nc2ccc(Cl)cc2)[C@H]1O", "note": "[Example 26, (2R, 3R, 4S)-N''-cyano-N-(3,4-dihydro-3-hydroxy-2-methyl-2-dimethoxymethyl-2H-benzopyran-4-yl)-N'-(4-chlorophenyl)guanidine]", "LD50": "> 1000"},
      {"smiles": "C[C@]1(CO)Oc2ccc([N+](=O)[O-])cc2[C@H](NC(=NC#N)Nc2ccc(Cl)cc2)[C@H]1O", "note": "[Example 28, (2R, 3R, 4S)-N''-cyano-N-(6-nitro-3,4-dihydro-3-hydroxy-2-methyl-2-hydroxymethyl-2H-benzopyran-4-yl)-N'-(4-chlorophenyl)guanidine]", "LD50": "> 1000"},
      {"smiles": "C[C@]1(CO)Oc2ccc([N+](=O)[O-])cc2[C@@H](NC(=NC#N)Nc2ccc(Cl)cc2)[C@@H]1O", "note": "[Example 29, (2R, 3S, 4R)-N''-cyano-N-(6-nitro-3,4-dihydro-3-hydroxy-2-methyl-2-hydroxymethyl-2H-benzopyran-4-yl)-N'-(4-chlorophenyl)guanidine]", "LD50": "> 1000"},
      {"smiles": "COC[C@@]1(C)Oc2ccc([N+](=O)[O-])cc2[C@H](NC(=NC#N)Nc2ccc(Cl)cc2)[C@H]1O", "note": "[Example 30, (2R, 3R, 4S)-N''-cyano-N-(6-nitro-3,4-dihydro-3-hydroxy-2-methyl-2-methoxymethyl-2H-benzopyran-4-yl)-N'-(4-chlorophenyl)guanidine]", "LD50": "> 1000"},
      {"smiles": "COC[C@@]1(C)Oc2ccc([N+](=O)[O-])cc2[C@@H](NC(=NC#N)Nc2ccc(Cl)cc2)[C@@H]1O", "note": "[Example 31, (2R, 3S, 4R)-N''-cyano-N-(6-nitro-3,4-dihydro-3-hydroxy-2-methyl-2-methoxymethyl-2H-benzopyran-4-yl)-N'-(4-chlorophenyl)guanidine]", "LD50": "> 1000"},
      {"smiles": "COC(OC)[C@@]1(C)Oc2ccc([N+](=O)[O-])cc2[C@@H](NC(=NC#N)Nc2ccccc2Cl)[C@@H]1O", "note": "[Example 33, (2S, 3S, 4R)-N''-cyano-N-(6-nitro-3,4-dihydro-3-hydroxy-2-methyl-2-dimethoxymethyl-2H-benzopyran-4-yl)-N'-(2-chlorophenyl)guanidine]", "LD50": "> 1000"},
      {"smiles": "COC(OC)[C@@]1(C)Oc2ccc([N+](=O)[O-])cc2[C@H](NC(=NC#N)Nc2ccccc2C(F)(F)F)[C@H]1O", "note": "[Example 34, (2S, 3R, 4S)-N''-cyano-N-(6-nitro-3,4-dihydro-3-hydroxy-2-methyl-2-dimethoxymethyl-2H-benzopyran-4-yl)-N'-(2-trifluoromethylphenyl)guanidine]", "LD50": "> 1000"},
      {"smiles": "COC(OC)[C@@]1(C)Oc2ccc([N+](=O)[O-])cc2[C@@H](NC(=NC#N)Nc2ccccc2C(F)(F)F)[C@@H]1O", "note": "[Example 35, (2S, 3S, 4R)-N''-cyano-N-(6-nitro-3,4-dihydro-3-hydroxy-2-methyl-2-dimethoxymethyl-2H-benzopyran-4-yl)-N'-(2-trifluoromethylphenyl)guanidine]", "LD50": "> 1000"},
      {"smiles": "COC(OC)[C@@]1(C)Oc2ccc([N+](=O)[O-])cc2[C@H](NC(=NC#N)NCc2ccccc2Cl)[C@H]1O", "note": "[Example 36, (2S, 3R, 4S)-N''-cyano-N-(6 - nitro-3,4-dihydro-3-hydroxy-2-methyl-2-dimethoxymethyl-2H-benzopyran-4-yl)-N'-(2-chlorobenzyl)guanidine]", "LD50": "> 1000"},
      {"smiles": "COC(OC)[C@@]1(C)Oc2ccc([N+](=O)[O-])cc2[C@@H](NC(=NC#N)NCc2ccccc2Cl)[C@@H]1O", "note": "[Example 37, (2S, 3S, 4R)-N''-cyano-N-(6-nitro-3,4-dihydro-3-hydroxy-2-methyl-2-dimethoxymethyl-2H-benzopyran-4-yl)-N'-(2-chlorobenzyl)guanidine]", "LD50": "> 1000"},
      {"smiles": "COC(OC)[C@]1(C)C=C(NC(=NC#N)NCc2ccccc2)c2cc([N+](=O)[O-])ccc2O1", "note": "[Example 39, (2S)-N''-cyano-N-(6-nitro-2-methyl-2-dimethoxymethyl-2H-benzopyran-4-yl)-N'-benzylguanidine]", "LD50": "> 1000"},
      {"smiles": "COC(OC)[C@@]1(C)Oc2ccc(C#N)cc2[C@H](NC(=NC#N)Nc2ccc(Cl)cc2)[C@H]1O", "note": "[Example 44, (2S, 3R, 4S)-N''-cyano-N-(6-cyano-3,4-dihydro-3-hydroxy-2-methyl-2-dimethoxymethyl-2H-benzopyran-4-yl)-N'-(4-chlorophenyl)guanidine]", "LD50": "> 1000"},
      {"smiles": "COC(OC)[C@@]1(C)Oc2ccc(C#N)cc2[C@H](NC(=NC#N)NCc2ccccc2)[C@H]1O", "note": "[Example 46, (2S, 3R, 4S)-N''-cyano-N-(6-cyano-3,4-dihydro-3-hydroxy-2-methyl-2-dimethoxymethyl-2H-benzopyran-4-yl)-N'-benzylguanidine]", "LD50": "> 1000"},
      {"smiles": "COC(OC)[C@@]1(C)Oc2ccc(Br)cc2[C@@H](NC(=NC#N)NCc2ccccc2)[C@@H]1O", "note": "[Example 47, (2S, 3S, 4R)-N''-cyano-N-(6-bromo-3,4-dihydro-3-hydroxy-2-methyl-2-dimethoxymethyl-2H-benzopyran-4-yl)-N'-benzylguanidine]", "LD50": "> 1000"},
      {"smiles": "COc1ccc(CNC(=NC#N)N[C@@H]2c3cc([N+](=O)[O-])ccc3O[C@](C)(C(OC)OC)[C@H]2O)cc1OC", "note": "[Example 48, (2S, 3S, 4R)-N''-cyano-N-(6-nitro-3,4-dihydro-3-hydroxy-2-methyl-2-dimethoxymethyl-2H-benzopyran-4-yl)-N'-(3,4-dimethoxybenzyl) guanidine]", "LD50": "> 1000"},
      {"smiles": "COc1ccc(CNC(=NC#N)N[C@@H]2c3cc(N)ccc3O[C@](C)(C(OC)OC)[C@H]2O)cc1OC", "note": "[Example 49, (2S, 3S, 4R)-N''-cyano-N-(6-amino-3,4-dihydro-3-hydroxy-2-methyl-2-dimethoxymethyl-2H-benzopyran-4-yl)-N'-(3,4-dimethoxybenzyl) guanidine]", "LD50": "> 1000"},
      {"smiles": "COc1ccc(CNC(=NC#N)N[C@@H]2c3cc(N)ccc3O[C@](C)(C(OC)OC)[C@H]2O)cc1", "note": "[Example 51, (2S,3S,4R)-N''-cyano-N-(6-amino-3,4-dihydro-3-hydroxy-2-methyl-2-dimethoxymethyl-2H-benzopyran-4-yl)-N'-(4-methoxybenzyl) guanidine]", "LD50": "> 1000"},
      {"smiles": "COC(OC)[C@@]1(C)Oc2ccc(N)cc2[C@H](/N=C(\\NC#N)NCc2ccccc2)[C@H]1O", "note": "[Example 57, (2S, 3R, 4S)-N''-cyano-N-(6-amino-3,4-dihydro-3-hydroxy-2-methyl-2-dimethoxymethyl-2H-benzopyran-4-yl)-N'-benzylguanidine]", "LD50": "> 1000"}
    ]}
  ]
}
